Read-outs that look alike come from different tables or passages of the source.
Assays:
[1] = target: T1, Full-length (FL)-PRMT5-MEP50 enzyme complex (Homo sapiens, UniProt O14744); test: PRMT5-MEP50 Enzyme Methylation Assay (Version A); assay type: biochemical
T1 construct: Full-length (FL)-PRMT5-MEP50 enzyme complex (recombinant proteins from baculovirus-transfected Sf21 cells: FL-PRMT5; MW=73837 kDa and FL-MEP50; MW=38614); made in house; host or cells: baculovirus-transfected Sf21 cells
Procedure, shortened: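 Compound was pre-incubated with enzyme for 60 min, then reacted 150 min at 37° C. at final 1.0 nM PRMT5-MEP50, 15 μM SAM and 75 nM biotinylated H4R3(Me1) peptide, in 50 mM Bicine pH 8.0 with 1% DMSO. SAMDI mass-spectrometric readout of Me1→Me2 conversion. EC50 from 4- or 7-parameter regression.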

[2] = system: symmetric dimethylation of arginine (SDMA) of PRMT5 substrates in MCF-7 cells; test: PRMT5 Cell Target Engagement (TE) Assay; assay type: cell-based; conditions: 3 days treatment, SDMA high content imaging
Procedure, shortened: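 Readout is single-cell nuclear symmetric-dimethylarginine immunofluorescence (Alexa488), normalized to DMSO-treated cells. Compounds were applied to MCF-7 cells for 3 days at 37 °C, top concentration 10000 nM in 1:3 steps over ten points; curves fitted with 4-parameter robust fit.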

[3] = second value of 7 parameter biphasic fit, read-out: Enzyme Methylation Assay Version A (EC50 2)
[4] = single EC50 = 4 parameter single site sigmoidal fit, EC50 1 = first value of 7 parameter biphasic fit, read-out: Enzyme Methylation Assay Version A (EC50 or EC50 1)

T1 sequence (O14744 whole entry): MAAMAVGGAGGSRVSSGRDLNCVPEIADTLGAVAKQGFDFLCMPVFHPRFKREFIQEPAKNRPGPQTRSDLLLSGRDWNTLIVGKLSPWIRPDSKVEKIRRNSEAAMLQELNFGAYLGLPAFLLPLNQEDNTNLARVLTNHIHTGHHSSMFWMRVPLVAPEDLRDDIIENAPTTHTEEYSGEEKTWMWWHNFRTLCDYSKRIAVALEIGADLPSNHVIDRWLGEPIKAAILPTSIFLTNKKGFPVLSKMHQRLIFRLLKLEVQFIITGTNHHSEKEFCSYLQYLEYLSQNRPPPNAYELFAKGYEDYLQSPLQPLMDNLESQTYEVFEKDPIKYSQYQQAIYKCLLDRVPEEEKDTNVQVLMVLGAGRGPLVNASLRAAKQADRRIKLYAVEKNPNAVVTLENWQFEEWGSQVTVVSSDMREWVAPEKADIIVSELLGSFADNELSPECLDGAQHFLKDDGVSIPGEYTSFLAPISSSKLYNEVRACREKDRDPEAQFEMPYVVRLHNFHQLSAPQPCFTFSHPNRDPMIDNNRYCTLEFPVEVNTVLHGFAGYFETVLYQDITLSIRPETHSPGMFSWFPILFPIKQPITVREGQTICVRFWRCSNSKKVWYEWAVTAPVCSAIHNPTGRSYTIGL
T1 sequence (Q9BQA1 whole entry partner): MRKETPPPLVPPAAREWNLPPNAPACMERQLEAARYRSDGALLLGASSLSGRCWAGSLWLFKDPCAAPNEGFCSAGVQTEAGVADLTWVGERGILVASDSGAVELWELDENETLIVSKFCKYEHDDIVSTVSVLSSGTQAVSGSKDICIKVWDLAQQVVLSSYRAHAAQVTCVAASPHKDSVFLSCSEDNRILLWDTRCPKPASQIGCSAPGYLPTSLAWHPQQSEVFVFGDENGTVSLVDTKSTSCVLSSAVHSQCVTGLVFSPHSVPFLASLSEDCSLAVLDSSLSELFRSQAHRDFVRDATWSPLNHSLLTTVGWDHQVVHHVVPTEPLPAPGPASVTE

Cc1cn2cc(C(=O)N3CC[C@]4(Cc5ccccc5CN4)[C@H](O)C3)nc2nc1C [Example 126, (6,7-dimethylimidazo[1,2-a]pyrimidin-2-yl)[(3R,3′R)-3′-hydroxy-1,4-dihydro-1′H,2H-spiro[isoquinoline-3,4′-piperidin]-1′-yl]methanone]
EC50 [1, 3]: 5010 nM
EC50 [1, 4]: 7.15 nM
EC50 ([2]; Homo sapiens, MCF7, 72 h): 399 nM

O=C(c1cn2cc(Cl)cc(Br)c2n1)N1CC[C@]2(Cc3ccccc3CN2)[C@H](O)C1 [Example 210, (8-bromo-6-chloroimidazo[1,2-a]pyridin-2-yl)[(3R,3′R)-3′-hydroxy-1,4-dihydro-1′H,2H-spiro[isoquinoline-3,4′-piperidin]-1′-yl]methanone]
EC50 [1, 3]: 55 nM
EC50 [1, 4]: 0.207 nM
EC50 ([2]; Homo sapiens, MCF7, 72 h): 12.4 nM

COC[C@@H]1C[C@H](C(F)(F)F)Cn2cc(C(=O)N3CC[C@]4(Cc5ccccc5CN4)[C@H](O)C3)nc21 (single isomer, unassigned) [Example 156]
EC50 [1, 3]: 15800 nM
EC50 [1, 4]: 42.7 nM
EC50 ([2]; Homo sapiens, MCF7, 72 h): 642 nM

Cc1cc(C(F)(F)F)cn2cc(C(=O)N3CC[C@]4(Cc5ccccc5CN4)[C@H](O)C3)nc12 [Example 35, ((3R,3’R)-3′-hydroxy-1,4-dihydro-2H-spiro[isoquinoline-3,4′-piperidin]-1′-yl)(8-methyl-6-(trifluoromethyl)imidazo[1,2-a]pyridin-2-yl)methanone]
EC50 [1, 3]: 248 nM
EC50 [1, 4]: 0.766 nM
EC50 ([2]; Homo sapiens, MCF7, 72 h): 5.66 nM

COC(C)c1cc(Br)c2nc(C(=O)N3CC[C@]4(Cc5ccccc5CN4)[C@H](O)C3)cn2c1 (single isomer, unassigned) [Example 61]
EC50 [1, 3]: 422 nM
EC50 [1, 4]: 0.669 nM
EC50 [2]: 16.9 nM

O=C(c1ccc(-n2cnnn2)cn1)N1CC[C@]2(Cc3ccccc3CN2)[C@H](O)C1 [Example 192, [(3R,3′R)-3′-hydroxy-1,4-dihydro-1′H,2H-spiro[isoquinoline-3,4′-piperidin]-1′-yl][5-(1H-tetrazol-1-yl)-2-pyridinyl]methanone]
EC50 [1, 3]: 34700 nM
EC50 [1, 4]: 112 nM
EC50 ([2]; Homo sapiens, MCF7, 72 h): ≥ 10000 nM

O=C(c1cn2cc(F)ccc2n1)N1CC[C@]2(Cc3ccccc3CN2)[C@H](O)C1 [Example 38, (6-fluoroimidazo[1,2-a]pyridin-2-yl)((3R,3’R)-3′-hydroxy-1,4-dihydro-2H-spiro[isoquinoline-3,4′-piperidin]-1′-yl)methanone]
EC50 [1, 3]: 2460 nM
EC50 [1, 4]: 3.84 nM
EC50 ([2]; Homo sapiens, MCF7, 72 h): 16.2 nM

CC1CC1c1cnc2nc(C(=O)N3CC[C@]4(Cc5ccccc5CN4)[C@H](O)C3)cn2c1 (single isomer, unassigned) [Example 76]
EC50 [1, 3]: 73.3 nM
EC50 [1, 4]: 0.983 nM
EC50 [2]: 4.02 nM

CC1OC(=O)Nc2cc(C(=O)N3CC[C@]4(Cc5ccccc5CN4)[C@H](O)C3)ccc21 (stereo partly drawn) [compound 171, 7-{[(3R,3′R)-3′-hydroxy-1,4-dihydro-1′H,2H-spiro[isoquinoline-3,4′-piperidin]-1′-yl]carbonyl}-4-methyl-1,4-dihydro-2H-3,1-benzoxazin-2-one]
EC50 [1, 3]: 733 nM
EC50 [1, 4]: 0.929 nM
EC50 ([2]; Homo sapiens, MCF7, 72 h): 6.47 nM

CC(C)Oc1nc(Br)cn2cc(C(=O)N3CC[C@]4(Cc5ccccc5CN4)[C@H](O)C3)nc12 [Example 11, {6-bromo-8-[(propan-2-yl)oxy]imidazo[1,2-a]pyrazin-2-yl}((3R,3’R)-3′-hydroxy-1,4-dihydro-1′H,2H-spiro[isoquinoline-3,4′-piperidin]-1′-yl)methanone]
EC50 [1, 3]: 88.6 nM
EC50 [1, 4]: 0.495 nM
EC50 ([2]; Homo sapiens, MCF7, 72 h): 4.2 nM

Cc1c(Br)cnc2ncc(C(=O)N3CC[C@]4(Cc5ccccc5CN4)[C@H](O)C3)n12 [Example 141, (6-bromo-5-methylimidazo[1,2-a]pyrimidin-3-yl)[(3R,3′R)-3′-hydroxy-1,4-dihydro-1′H,2H-spiro[isoquinoline-3,4′-piperidin]-1′-yl]methanone]
EC50 [1, 3]: 3720 nM
EC50 [1, 4]: 101 nM
EC50 ([2]; Homo sapiens, MCF7, 72 h): 4380 nM

Cc1cc2ncc(C(=O)N3CC[C@]4(Cc5ccccc5CN4)[C@H](O)C3)c(C)n2n1 [Example 181, (2,7-dimethylpyrazolo[1,5-a]pyrimidin-6-yl)((3R,3′R)-3′-hydroxy-1,4-dihydro-2H-spiro[isoquinoline-3,4′-piperidin]-1′-yl)methanone]
EC50 [1, 3]: 3980 nM
EC50 [1, 4]: 20.9 nM
EC50 ([2]; Homo sapiens, MCF7, 72 h): 924 nM

CO[C@H](C)c1cccn2cc(C(=O)N3CC[C@]4(Cc5ccccc5CN4)[C@H](O)C3)nc12 [Example 237, [(3R,3′R)-3′-hydroxy-1,4-dihydro-1′H,2H-spiro[isoquinoline-3,4′-piperidin]-1′-yl]{8-[(1R)-1-methoxyethyl]imidazo[1,2-a]pyridin-2-yl}methanone]
EC50 [1, 3]: 1840 nM
EC50 [1, 4]: 9.13 nM
EC50 ([2]; Homo sapiens, MCF7, 72 h): 258 nM

O=C(c1cnc2ncc(C(F)(F)F)cn12)N1CC[C@]2(Cc3ccccc3CN2)[C@H](O)C1 [Example 168, [(3R,3′R)-3′-hydroxy-1,4-dihydro-1′H,2H-spiro[isoquinoline-3,4′-piperidin]-1′-yl][6-(trifluoromethyl)imidazo[1,2-a]pyrimidin-3-yl]methanone]
EC50 [1, 3]: 385 nM
EC50 [1, 4]: 2.56 nM
EC50 ([2]; Homo sapiens, MCF7, 72 h): 50.2 nM

O=C(c1cn2cc(Br)cc(Br)c2n1)N1CC[C@]2(Cc3ccccc3CN2)[C@H](O)C1 [Example 218, (6,8-dibromoimidazo[1,2-a]pyridin-2-yl)[(3R,3′R)-3′-hydroxy-1,4-dihydro-1′H,2H-spiro[isoquinoline-3,4′-piperidin]-1′-yl]methanone]
EC50 [1, 4]: 1.97 nM
EC50 ([2]; Homo sapiens, MCF7, 72 h): 4.07 nM

COC(C)c1ccc2nc(C(=O)N3CC[C@]4(Cc5ccccc5CN4)[C@H](O)C3)cn2c1 (single isomer, unassigned) [Example 23, ((3R,3’R)-3′-hydroxy-1,4-dihydro-2H-spiro[isoquinoline-3,4′-piperidin]-1-yl)(6-((R or S)-1-methoxyethyl)imidazo[1,2-a]pyridin-2-yl)methanone]
EC50 [1, 3]: 851 nM
EC50 [1, 4]: 1.8 nM
EC50 [2]: 46.4 nM

O=C(c1cn2cc(Br)ncc2n1)N1CC[C@]2(Cc3ccccc3CN2)[C@H](O)C1 [Example 42, (6-bromoimidazo[1,2-a]pyrazin-2-yl)((3R,3’R)-3′-hydroxy-1,4-dihydro-2H-spiro[isoquinoline-3,4′-piperidin]-1′-yl)methanone]
EC50 [1, 3]: 3240 nM
EC50 [1, 4]: 5.35 nM
EC50 ([2]; Homo sapiens, MCF7, 72 h): 24.9 nM

A diastereomer of [(3R,3′R)-3′- hydroxy-1,4-dihydro-1′H,2H- spiro[isoquinoline-3,4′-piperidin]-1′- yl][6-isopropyl-8-(1- methoxyethyl)imidazo[1,2- a]pyridin-2-yl]methanone [Example 85]
EC50 [1, 3]: 3060 nM
EC50 [1, 4]: 5.6 nM
EC50 [2]: 115 nM

COc1nc(C)ccc1C(=O)N1CC[C@]2(Cc3ccccc3CN2)[C@H](O)C1 [Example 205, [(3R,3′R)-3′-hydroxy-1,4-dihydro-1′H,2H-spiro[isoquinoline-3,4′-piperidin]-1′-yl](2-methoxy-6-methyl-3-pyridinyl)methanone]
EC50 [1, 3]: 2750 nM
EC50 [1, 4]: 2.8 nM
EC50 ([2]; Homo sapiens, MCF7, 72 h): 324 nM

CC1CC1c1cnc2nc(C(=O)N3CC[C@]4(Cc5ccccc5CN4)[C@H](O)C3)cn2c1 (single isomer, unassigned) [Example 74]
EC50 [1, 4]: 13.9 nM
EC50 [2]: 8.37 nM

Cc1ccc(C(=O)N2CC[C@]3(Cc4ccccc4CN3)[C@H](O)C2)c(C)n1 [Example 220, (2,6-dimethyl-3-pyridinyl)[(3R,3′R)-3′-hydroxy-1,4-dihydro-1′H,2H-spiro[isoquinoline-3,4′-piperidin]-1′-yl]methanone]
EC50 [1, 3]: 2600 nM
EC50 [1, 4]: 83.2 nM
EC50 ([2]; Homo sapiens, MCF7, 72 h): 2100 nM

Cc1cnc2nc(C(=O)N3CC[C@]4(Cc5ccccc5CN4)[C@H](O)C3)cn2c1C [Example 127, (5,6-dimethylimidazo[1,2-a]pyrimidin-2-yl)[(3R,3′R)-3′^-hydroxy-1,4-dihydro-1′H,2H-spiro[isoquinoline-3,4′-piperidin]-1′-yl]methanone]
EC50 [1, 3]: 34300 nM
EC50 [1, 4]: 61.7 nM
EC50 ([2]; Homo sapiens, MCF7, 72 h): 3950 nM

Cc1ccn2cc(C(=O)N3CC[C@]4(Cc5ccccc5CN4)[C@H](O)C3)nc2n1 [Example 111, [(3R,3′R)-3′-hydroxy-1,4-dihydro-1′H,2H-spiro[isoquinoline-3,4′-piperidin]-1′-yl](7-methylimidazo[1,2-a]pyrimidin-2-yl)methanone]
EC50 [1, 3]: 35900 nM
EC50 [1, 4]: 41.2 nM
EC50 ([2]; Homo sapiens, MCF7, 72 h): 2710 nM

COCCN1CC(C2CC2)Cn2cc(C(=O)N3CC[C@]4(Cc5ccccc5CN4)[C@H](O)C3)nc21 (single isomer, unassigned) [Example 144]
EC50 [1, 4]: 65.9 nM
EC50 [2]: 173 nM

CO[C@H](C)c1cc(-c2sc(C)nc2C)cn2cc(C(=O)N3CC[C@]4(Cc5ccccc5CN4)[C@H](O)C3)nc12 [Example 244, {6-(2,4-dimethyl-1,3-thiazol-5-yl)-8-[(1R)-1-methoxyethyl]imidazo[1,2-a]pyridin-2-yl}[(3R,3′R)-3′-hydroxy-1,4-dihydro-1′H,2H-spiro[isoquinoline-3,4′-piperidin]-1′-yl]methanone]
EC50 [1, 4]: 0.675 nM
EC50 ([2]; Homo sapiens, MCF7, 72 h): 1.68 nM

COCCOc1nc(Br)cn2cc(C(=O)N3CC[C@]4(Cc5ccccc5CN4)[C@H](O)C3)nc12 [Example 19, (6-bromo-8-(2-methoxyethoxy)imidazo[1,2-a]pyrazin-2-yl)((3R,3’R)-3′-hydroxy-1,4-dihydro-2H-spiro[isoquinoline-3,4′-piperidin]-1′-yl)methanone]
EC50 [1, 3]: 105 nM
EC50 [1, 4]: 0.305 nM
EC50 ([2]; Homo sapiens, MCF7, 72 h): 10.2 nM
